Measurements from patent publication US7935694B2, “Lactam compounds useful as protein kinase inhibitors” (Millennium Pharmaceuticals, Inc., priority 2004, dated 2011).

Molecular target: T1, recombinant murine Aurora A enzyme (Mus musculus, UniProt P97477)
T1 construct: hexahistidine (His6) (N); made in house; host or cells: insect cells (baculovirus, Bac-to-Bac)
T1 sequence (P97477 1-395): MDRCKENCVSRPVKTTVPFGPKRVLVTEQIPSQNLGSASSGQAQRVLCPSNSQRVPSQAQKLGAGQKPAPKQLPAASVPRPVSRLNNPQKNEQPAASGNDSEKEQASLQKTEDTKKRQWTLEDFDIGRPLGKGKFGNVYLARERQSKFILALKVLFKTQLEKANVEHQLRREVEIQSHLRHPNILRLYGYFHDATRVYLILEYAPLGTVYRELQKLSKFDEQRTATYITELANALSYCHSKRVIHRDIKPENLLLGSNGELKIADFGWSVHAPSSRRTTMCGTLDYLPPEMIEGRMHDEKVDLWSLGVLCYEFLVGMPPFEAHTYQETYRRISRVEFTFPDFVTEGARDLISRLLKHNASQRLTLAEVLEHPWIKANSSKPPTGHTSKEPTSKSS
Experiment: Aurora A DELFIA Kinase Assay
Assay type: biochemical
Settings: 1 mM ATP, 20 nM enzyme, 10 minutes at room temperature
Experimental: Recombinant mouse Aurora A with an amino-terminus hexahistidine tag (His-Aurora A) was expressed using a standard baculovirus vector and insect cell expression system (Bac-to-Bac®, Invitrogen). Soluble, recombinant mouse Aurora A was purified from insect cells using Ni-NTA agarose (Qiagen) as described by the manufacturer and further purified over an S75 size exclusion column (Amersham Pharmacia Biotech). The mouse Aurora A enzymatic reaction totaled 25 μL and contained 25 mM Tris-HCl (pH 8.5), 2.5 mM MgCl2, 0.05% Surfact-AMPS-20, 5 mM Sodium Fluoride, 5 mM DTT, 1 mM ATP, 3 μM peptide substrate (Biotin-β-[…]), and 20 nM recombinant murine Aurora A enzyme. The enzymatic reaction mixture, with and without Aurora inhibitors, was incubated for 10 minutes at room temperature before termination with 100 μL of stop buffer (1% BSA, 0.05% Surfact-AMPS-20, and 100 mM EDTA). A total of 100 μL of the enzyme reaction mixture was transferred to wells of a Neutravidin-coated 96-well plate (Pierce) and incubated at room temperature for 30 minutes. The wells were washed with wash buffer (25 mM Tris, 150 mM sodium chloride, and 0.1% Tween 20) and incubated for 1 hour with 100 μL of antibody reaction mixture containing 1% BSA, 0.05% Surfact-AMPS-20, anti-phospho-PKA rabbit polyclonal antibody (1:2000, New England Biolabs), and europium labeled anti-rabbit IgG (1:2000, Perkin Elmer). The wells were washed and then the bound europium was liberated using 100 μL of Enhancement Solution (Perkin Elmer). Quantification of europium was done using a WallacTM EnVision (Perkin Elmer).

Question: For `COc1ccc(Nc2ncc3c(n2)-c2ccc(C#CCN(C)C)cc2NC(=O)C3)cc1OC` [Compound I-91, 2-(3,4-Dimethoxy-phenylamino)-9-(3-dimethylamino-prop-1-ynyl)-5H,7H-benzo[b]pyrimido[4,5-d]azepin-6-one], which IC50 is on record?
Answer: The IC50 was ≤ 500 nM.

Question: Which IC50 does the source give for `CN1C(=O)Cc2cnc(Nc3ccc(C(=O)O)cc3)nc2-c2ccc(Cl)cc21` [Compound I-7, 4-(9-Chloro-7-methyl-6-oxo-6,7-dihydro-5H-benzo[b]pyrimido[4,5-d]azepin-2-ylamino)-benzoic acid] here?
Answer: The IC50 was ≤ 500 nM.

Question: Which IC50 does the source give for `O=C1Cc2cnc(Nc3ccc(C#CCN4CCCC4)cc3)nc2-c2ccc(Cl)cc2N1` [Compound I-47, 9-Chloro-2-[4-(3-pyrrolidin-1-yl-prop-1-ynyl)-phenylamino]-5H,7H-benzo[b]-pyrimido[4,5-d]azepin-6-one] here?
Answer: Its IC50 is ≤ 500 nM.

Question: `NCCNC(=O)c1cccc(Nc2ncc3c(n2)-c2ccc(Cl)cc2NC(=O)C3)c1` [Compound I-62, N-(2-Amino-ethyl)-3-(9-chloro-6-oxo-6,7-dihydro-5H-benzo[b]pyrimido[4,5-d]azepin-2-ylamino)-benzamide] was tested. Which IC50 did it give?
Answer: The IC50 was ≤ 500 nM.

Question: How did the IC50 turn out when `COc1ccc(Nc2ncc3c(n2)-c2ccc(CCCN4CCCC4)cc2NC(=O)C3)cc1OC` [Compound I-49, 2-(3,4-Dimethoxy-phenylamino)-9-(3-pyrrolidin-1-yl-propyl)-5H,7H-benzo[b]-pyrimido[4,5-d]azepin-6-one] was run?
Answer: The IC50 was ≤ 500 nM.

Question: How did the IC50 turn out when `COc1ccc(Nc2ncc3c(n2)-c2ccc(C#CCN4CCCC4)cc2NC(=O)C3)cc1OC` [Compound I-32, 2-(3,4-Dimethoxy-phenylamino)-9-(3-pyrrolidin-1-yl-prop-1-ynyl)-5H,7H benzo[b]pyrimido[4,5-d]azepin-6-one] was run?
Answer: Its IC50 is ≤ 500 nM.

Question: For `NCCCCNC(=O)c1cccc(Nc2ncc3c(n2)-c2ccc(Cl)cc2NC(=O)C3)c1` [Compound I-64, N-(4-Amino-butyl)-3-(9-chloro-6-oxo-6,7-dihydro-5H-benzo[b]pyrimido[4,5-d]azepin-2-ylamino)-benzamide], which IC50 is on record?
Answer: Its IC50 is ≤ 500 nM.

Question: Which IC50 does the source give for `O=C1Cc2cnc(Nc3ccc(CCCN4CCCC4)cc3)nc2-c2ccc(Cl)cc2N1` [Compound I-66, 9-Chloro-2-[4-(3-pyrrolidin-1-yl-propyl)-phenylamino]-5H,7H-benzo[b]pyrimido[4,5-d]-azepin-6-one] here?
Answer: The IC50 was ≤ 500 nM.

Question: With `COc1ccc(Nc2ncc3c(n2)-c2ccc(C(=O)NCCCN)cc2NC(=O)C3)cc1OC` [Compound I-72, 2-(3,4-Dimethoxy-phenylamino)-6-oxo-6,7-dihydro-5H-benzo[b]pyrimido[4,5-d]azepine-9-carboxylic acid (3-amino-propyl)-amide] as the compound, how does the IC50 read?
Answer: Its IC50 is ≤ 500 nM.

Question: `NCC#Cc1cccc(Nc2ncc3c(n2)-c2ccc(Cl)cc2NC(=O)C3)c1` [Compound I-67, 2-[3-(3-Amino-prop-1-ynyl)-phenylamino]-9-chloro-5H,7H-benzo[b]pyrimido[4,5-d]azepin-6-one] was tested. Which IC50 did it give?
Answer: The IC50 was ≤ 500 nM.

Question: Which IC50 does the source give for `COc1ccc(Nc2ncc3c(n2)-c2ccc(Cl)cc2NC(=O)C3)cc1OC` [Compound I-2, 9-Chloro-2-(3,4-dimethoxy-phenylamino)-5H,7H-benzo[b]pyrimido[4,5-d]azepin-6-one] here?
Answer: Its IC50 is ≤ 500 nM.

Question: `COc1ccc(Nc2ncc3c(n2)-c2ccccc2NC(=O)C3)cc1OC` [Compound I-27, 2-(3,4-Dimethoxy-phenylamino)-5H,7H-benzo[b]pyrimido[4,5-d]azepin-6-one] was tested. Which IC50 did it give?
Answer: Its IC50 is ≤ 500 nM.

Question: How did the IC50 turn out when `COc1ccc(Nc2ncc3c(n2)-c2ccc(CCCN(C)C)cc2NC(=O)C3)cc1OC` [Compound I-88, 2-(3,4-Dimethoxy-phenylamino)-9-(3-dimethylamino-propyl)-5H,7H-benzo[b]pyrimido[4,5-d]azepin-6-one] was run?
Answer: The IC50 was ≤ 500 nM.

Question: `O=C1Cc2cnc(Nc3cccc(C#CCN4CCCC4)c3)nc2-c2ccc(Cl)cc2N1` [Compound I-89, 9-Chloro-2-[3-(3-pyrrolidin-1-yl-prop-1-ynyl)-phenylamino]-5H,7H-benzo[b]-pyrimido[4,5-d]azepin-6-one] was tested. Which IC50 did it give?
Answer: The IC50 was ≤ 500 nM.

Question: Which IC50 does the source give for `CCCc1ccc2c(c1)NC(=O)Cc1cnc(Nc3ccc(OC)c(OC)c3)nc1-2` [Compound I-82, 2-(3,4-Dimethoxy-phenylamino)-9-propyl-5H,7H-benzo[b]pyrimido[4,5-d]azepin-6-one] here?
Answer: The IC50 was ≤ 500 nM.

Question: How did the IC50 turn out when `Cc1ccc2c(c1)NC(=O)Cc1cnc(Nc3ccc(C(=O)O)cc3)nc1-2` [Compound I-9, 4-(9-Methyl-6-oxo-6,7-dihydro-5H-benzo[b]pyrimido[4,5-d]azepin-2-ylamino)-benzoic acid] was run?
Answer: The IC50 was ≤ 500 nM.

Question: `NCCc1cccc(Nc2ncc3c(n2)-c2ccc(Cl)cc2NC(=O)C3)c1` [Compound I-86, 2-[3-(2-Amino-ethyl)-phenylamino]-9-chloro-5H,7H-benzo[b]pyrimido[4,5-d]azepin-6-one] was tested. Which IC50 did it give?
Answer: Its IC50 is ≤ 500 nM.

Question: `COc1ccc(Nc2ncc3c(n2)-c2cc(Br)ccc2NC(=O)C3)cc1OC` [Compound I-18, 10-Bromo-2-(3,4-dimethoxy-phenylamino)-5H,7H-benzo[b]pyrimido[4,5-d]azepin-6-one] was tested. Which IC50 did it give?
Answer: The IC50 was ≤ 5000 nM.

Question: For `COc1ccc(Nc2ncc3c(n2)-c2ccc(C(=O)O)cc2NC(=O)C3)cc1OC` [Compound I-53, 2-(3,4-dimethoxy-phenylamino)-6-oxo-6,7-dihydro-5H-benzo[b]pyrimido[4,5-d]azepine-9-carboxylic acid], which IC50 is on record?
Answer: The IC50 was ≤ 500 nM.

Question: How did the IC50 turn out when `O=C(O)c1ccc(Nc2ncc3c(n2)-c2ccc(Cl)cc2N(c2ccccc2)C(=O)C3)cc1` [Compound I-10, 4-(9-Chloro-6-oxo-7-phenyl-6,7-dihydro-5H-benzo[b]pyrimido[4,5-d]azepin-2-ylamino)-benzoic acid] was run?
Answer: The IC50 was ≤ 500 nM.

Question: Which IC50 does the source give for `COc1ccc(Nc2ncc3c(n2)-c2ccc(C#CCN)cc2NC(=O)C3)cc1OC` [Compound I-38, 9-(3-Amino-prop-1-ynyl)-2-(3,4-dimethoxy-phenylamino)-5H,7H-benzo[b]pyrimido[4,5-d]azepin-6-one] here?
Answer: Its IC50 is ≤ 500 nM.

Question: Which IC50 does the source give for `COc1ccc(Nc2ncc3c(n2)-c2ccc(C(=O)NCCCCN)cc2NC(=O)C3)cc1OC` [Compound I-73, 2-(3,4-Dimethoxy-phenylamino)-6-oxo-6,7-dihydro-5H-benzo[b]pyrimido[4,5-d]azepine-9-carboxylic acid (4-amino-butyl)-amide] here?
Answer: Its IC50 is ≤ 500 nM.

Question: How did the IC50 turn out when `CNCCCc1ccc2c(c1)NC(=O)Cc1cnc(Nc3ccc(OC)c(OC)c3)nc1-2` [Compound I-87, 2-(3,4-Dimethoxy-phenylamino)-9-(3-methylamino-propyl)-5H,7H-benzo[b]pyrimido[4,5-d]azepin-6-one] was run?
Answer: Its IC50 is ≤ 500 nM.

Question: How did the IC50 turn out when `COc1ccc(Nc2ncc3c(n2)-c2ccc(C(N)=O)cc2NC(=O)C3)cc1OC` [Compound I-70, 2-(3,4-dimethoxy-phenylamino)-6-oxo-6,7-dihydro-5H-benzo[b]pyrimido[4,5-d]azepine-9-carboxylic acid amide] was run?
Answer: Its IC50 is ≤ 500 nM.

Question: `C#Cc1ccc2c(c1)NC(=O)Cc1cnc(Nc3ccc(OC)c(OC)c3)nc1-2` [Compound I-33, 2-(3,4-dimethoxy-phenylamino)-9-ethynyl-5H,7H-benzo[b]pyrimido[4,5-d]azepin-6-one] was tested. Which IC50 did it give?
Answer: The IC50 was ≤ 500 nM.

Question: `CCc1ccc2c(c1)NC(=O)Cc1cnc(Nc3ccc(OC)c(OC)c3)nc1-2` [Compound I-37, 2-(3,4-Dimethoxy-phenylamino)-9-ethyl-5H,7H-benzo[b]pyrimido[4,5-d]azepin-6-one] was tested. Which IC50 did it give?
Answer: The IC50 was ≤ 500 nM.

Question: With `COc1ccc(Nc2ncc3c(n2)-c2ccc(CCCN)cc2NC(=O)C3)cc1OC` [Compound I-50, 9-(3-Amino-propyl)-2-(3,4-dimethoxy-phenylamino)-5H,7H-benzo[b]pyrimido[4,5-d]azepin-6-one] as the compound, how does the IC50 read?
Answer: Its IC50 is ≤ 500 nM.

Question: With `COc1ccc(Nc2ncc3c(n2)-c2ccc(C)cc2NC(=O)C3)cc1OC` [Compound I-42, 2-(3,4-Dimethoxy-phenylamino)-9-methyl-5H,7H-benzo[b]pyrimido[4,5-d]azepin-6-one] as the compound, how does the IC50 read?
Answer: Its IC50 is ≤ 500 nM.

Question: With `COc1ccc(Nc2ncc3c(n2)-c2ccc(C(=O)NCCN)cc2NC(=O)C3)cc1OC` [Compound I-71, 2-(3,4-Dimethoxy-phenylamino)-6-oxo-6,7-dihydro-5H-benzo[b]pyrimido[4,5-d]azepine-9-carboxylic acid (2-amino-ethyl)-amide] as the compound, how does the IC50 read?
Answer: The IC50 was ≤ 500 nM.

Question: Which IC50 does the source give for `COc1ccc(Nc2ncc3c(n2)-c2ccc(I)cc2NC(=O)C3)cc1OC` [Compound I-30, 2-(3,4-dimethoxy-phenylamino)-9-iodo-5H,7H-benzo[b]pyrimido[4,5-d]azepin-6-one] here?
Answer: Its IC50 is ≤ 500 nM.
